target: T1, TLR8 (Homo sapiens, UniProt Q9NR97); assay: huPBMC TLR8 Antagonist IL-6 TR-FRET Assay; format: cell-based; design: Fresh blood was collected from normal human donors; endogenous in cells; host or cells: human PBMCs from fresh donor blood; details: human PBMCs stimulated with ssRNA40 1 μg/ml (DOTAP), 14-16 hrs; IL-6 TR-FRET read-out
T1 sequence (Q9NR97 27-1041): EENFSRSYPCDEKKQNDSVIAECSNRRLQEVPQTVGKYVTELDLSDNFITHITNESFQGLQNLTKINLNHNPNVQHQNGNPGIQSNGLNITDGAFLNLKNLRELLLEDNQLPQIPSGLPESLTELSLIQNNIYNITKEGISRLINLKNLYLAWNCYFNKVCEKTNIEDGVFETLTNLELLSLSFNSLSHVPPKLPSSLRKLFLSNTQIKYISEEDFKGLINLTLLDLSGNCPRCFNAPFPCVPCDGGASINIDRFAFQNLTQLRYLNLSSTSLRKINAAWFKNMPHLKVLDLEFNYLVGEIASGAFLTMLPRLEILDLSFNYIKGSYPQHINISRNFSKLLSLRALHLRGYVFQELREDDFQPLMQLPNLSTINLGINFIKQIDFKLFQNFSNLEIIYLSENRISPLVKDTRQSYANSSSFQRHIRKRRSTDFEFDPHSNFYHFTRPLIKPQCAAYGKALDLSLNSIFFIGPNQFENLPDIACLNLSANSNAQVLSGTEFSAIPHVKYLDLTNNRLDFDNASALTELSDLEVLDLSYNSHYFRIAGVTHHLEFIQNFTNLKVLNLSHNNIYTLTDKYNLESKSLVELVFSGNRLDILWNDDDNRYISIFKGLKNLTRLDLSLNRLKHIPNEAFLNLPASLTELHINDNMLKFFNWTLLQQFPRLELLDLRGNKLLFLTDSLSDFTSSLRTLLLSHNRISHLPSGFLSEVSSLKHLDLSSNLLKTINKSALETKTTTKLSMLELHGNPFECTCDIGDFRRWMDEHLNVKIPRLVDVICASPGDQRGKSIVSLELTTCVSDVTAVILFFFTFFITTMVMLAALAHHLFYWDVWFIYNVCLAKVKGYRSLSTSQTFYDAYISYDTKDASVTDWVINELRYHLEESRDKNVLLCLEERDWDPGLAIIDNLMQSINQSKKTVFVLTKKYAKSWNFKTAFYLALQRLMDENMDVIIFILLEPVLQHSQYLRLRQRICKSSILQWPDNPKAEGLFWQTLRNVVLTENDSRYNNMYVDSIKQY
Description: Compounds were generally serially diluted (1/3) in DMSO and plated on sterile 384 well tissue culture plates and stored until ready for use. Each ten-point dilution was typically plated in triplicate in parallel rows.
Fresh blood was collected from normal human donors underwritten informed consent in heparinized syringes on the morning of the assay. The blood was diluted in RPMI-1640 medium and the white blood cells were separated from red blood cells by centrifugation (800 g 15′ 0 acceleration, 0 brake) on a Ficoll cushion. Peripheral blood mononuclear cells (PBMCs) were separated from platelets by a series of low-speed centrifugations (1000RPM 10′) in PBS+5% HI—FBS and 1 mM EDTA. Purified PBMCs were re-suspended in assay medium (RPMI-1640 w Glutamax (Invitrogen) supplemented with 5% HI—FBS, 10 mM HEPES, 50 uM β-mercaptoethanol, and 100 mG/L penicillin/streptomycin cocktail). Viable PBMCs were counted on a hemacytometer and kept on ice until ready for plating.
A 4× concentration (4 ug/ml or 40 ug/ml for TLR8 or TLR7 assays, respectively) of the TLR7/8 agonist ssRNA40 (IDT) was complexed with 10% DOTAP (Roche) in assay medium for 30 min prior to addition to the PBMC suspension (5 million cells/ml). After addition, the final concentration of ssRNA40 in the TLR7/8 stimulated PBMC suspension was 1 μg/ml for TLR8 assay, and 10 μg/mL for the TLR7 assay. The final DOTAP concentration was 2.5%. Diluted PBMCs (5 million cells/ml) were treated with 4×TLR9 agonist ODN2216 (Invivogen). Final concentration of ODN2216 in TLR9 stimulated PBMC suspension was 0.3 μM.
Agonist stimulated PBMCs were plated on the compound treated 384 well plates at 150,000 cells/well. Un-stimulated PBMCs were plated as controls on each plate. Plating volume was 40 μL per well. DMSO concentration in each well was 0.25%.
A separate plate, without compounds, with titrations of ssRNA40 and ODN2216 was included in every assay to measure agonist response of each donor's PBMC prep. Assay plates were placed in a tissue culture incubator (37° C., 5% CO2) for 14-16 hrs. After this incubation, the plates were centrifuged and stored at −20° C. until they were assayed.
IL-6 TR-FRET Assay for TLR8 activity: • 1) Cisbio Human IL-6 kit, 20,000 tests (62TNFPEC), and GNF High-Base TC 384 well plates (cat #789163G) were used; • 2) the Anti-TIL-6 Cryptate conjugate and the Anti-IL-6 XL665 conjugate were diluted 1:20 in Reconstitution Buffer; • 3) a 1:1 mixture of 3 μl/well Anti-IL-6 Cryptate conjugate and 3 μl/well Anti-IL-6 XL665 conjugate was prepared; • 4) 6 μl/well HTRF dilution mastermix was added to 6 μl of transferred supernatant samples in proxiplates; • 5) The plates were incubated for 3 hrs at rt in the dark; and • 6) the levels of IL-6 production was measured using an Envision plate reader (665 nm (emmission)/590 nm (excitation)) with HTRF settings and ratiometric read-out: (XL665 emission/Eu Cryptate emission)×10,000. IFNα2b AlphaLISA Assay for TLR7 or TLR9 activity After thawing the assay plates, 6 μL of supernatant samples were transferred to a low-volume AlphaPlate 384SW (Perkin-Elmer). The concentration of IFNα in supernatants was measured using the IFNα2b AlphaLISA Assay (Perkin-Elmer: AL297F). 3 μL of IFNα acceptor beads/biotinylated antibody solution was added first, using laboratory automation. After an hour incubation, […] of streptavidin […] bead solution was added. The plates containing this mixture were incubated in the dark for an hour and read on an appropriate plate reader at reading parameters set by the manufacturer. (Envision, EnSpire: Perkin-Elmer).

Compound | IC50 [nM]
Cc1nn(CC23CCC(N)(CC2)CC3)c2c1CN(c1nc(-c3ccc(F)cc3)nc3c1cnn3C)CC2 [Compound No. 83, 4-((5-(6-(4-fluorophenyl)-1-methyl-1H-pyrazolo[3,4-d]pyrimidin-4-yl)-3-methyl-4,5,6,7-tetrahydro-1H-pyrazolo[4,3-c]pyridin-1-yl)methyl)bicyclo[2.2.2]octan-1-amine] | 865
Cc1ccc(-c2cc(N3CCc4c(c(C)nn4CC45CCC(N)(CC4)CC5)C3)ccn2)c(F)c1 [compound 88, 4-((5-(2-(2-fluoro-4-methylphenyl)pyridin-4-yl)-3-methyl-4,5,6,7-tetrahydro-1H-pyrazolo[4,3-c]pyridin-1-yl)methyl)bicyclo[2.2.2]octan-1-amine] | 715
Cc1nn(CC23CCC(N)(CC2)CC3)c2c1CN(c1ccnc(-c3ccc(F)cc3)c1)CC2 [compound 87, 4-((5-(2-(4-fluorophenyl)pyridin-4-yl)-3-methyl-4,5,6,7-tetrahydro-1H-pyrazolo[4,3-c]pyridin-1-yl)methyl)bicyclo[2.2.2]octan-1-amine] | 1100
Cc1cc(N2CCc3c(c(C)nn3CC34CCC(NC(=O)CN(C)C)(CC3)CC4)C2)c2cnn(C)c2n1 [Compound No. 7, N-(4-((5-(1,6-dimethyl-1H-pyrazolo[3,4-b]pyridin-4-yl)-3-methyl-4,5,6,7-tetrahydro-1H-pyrazolo[4,3-c]pyridin-1-yl)methyl)bicyclo[2.2.2]octan-1-yl)-2-(dimethylamino)acetamide] | 61
Cc1cc(N2CCc3c(c(C)nn3CC34CCC(N5CCCCC5)(CC3)CO4)C2)c2cnn(C)c2n1 [compound 95, 5-(1,6-dimethyl-1H-pyrazolo[3,4-b]pyridin-4-yl)-3-methyl-1-((4-(piperidin-1-yl)-2-oxabicyclo[2.2.2]octan-1-yl)methyl)-4,5,6,7-tetrahydro-1H-pyrazolo[4,3-c]pyridine] | 85
CCN(C)C12CCC(Cn3nc(C)c4c3CCN(c3cc(C)nc5c3cnn5C)C4)(CC1)CC2 [compound 97, 4-((5-(1,6-dimethyl-1H-pyrazolo[3,4-b]pyridin-4-yl)-3-methyl-4,5,6,7-tetrahydro-1H-pyrazolo[4,3-c]pyridin-1-yl)methyl)-N-ethyl-N-methylbicyclo[2.2.2]octan-1-amine] | 89
COCCN(CCOC)C12CCC(Cn3nc(C)c4c3CCN(c3cc(C)nc5c3cnn5C)C4)(CC1)CC2 [Compound No. 70, 4-((5-(1,6-dimethyl-1H-pyrazolo[3,4-b]pyridin-4-yl)-3-methyl-4,5,6,7-tetrahydro-1H-pyrazolo[4,3-c]pyridin-1-yl)methyl)-N,N-bis(2-methoxyethyl)bicyclo[2.2.2]octan-1-amine] | 379
Cc1cc(N2Cc3cn(CC45CCC(N)(CC4)CC5)nc3C(C)(C)C2)c2cnn(C)c2n1 [compound 65, 4-((5-(1,6-dimethyl-1H-pyrazolo[3,4-b]pyridin-4-yl)-7,7-dimethyl-4,5,6,7-tetrahydro-2H-pyrazolo[4,3-c]pyridin-2-yl)methyl)bicyclo[2.2.2]octan-1-amine] | 2360
COCCN(C)C12CCC(Cn3nc(C)c4c3CCN(c3cc(C)nc5c3cnn5C)C4)(CC1)CC2 [Compound No. 73, 4-((5-(1,6-dimethyl-1H-pyrazolo[3,4-b]pyridin-4-yl)-3-methyl-4,5,6,7-tetrahydro-1H-pyrazolo[4,3-c]pyridin-1-yl)methyl)-N-(2-methoxyethyl)-N-methylbicyclo[2.2.2]octan-1-amine] | 139
Cc1nn(CC23CCC(N)(CC2)CC3)c2c1CN(c1nc(Cl)nc3c1COC3)CC2 [compound 103, 4-((5-(2-chloro-5,7-dihydrofuro[3,4-d]pyrimidin-4-yl)-3-methyl-4,5,6,7-tetrahydro-1H-pyrazolo[4,3-c]pyridin-1-yl)methyl)bicyclo[2.2.2]octan-1-amine] | 1420
Cc1cc(N2CCc3c(c(C)nn3CC34CCC(N)(CC3)CC4)C2)c2ccccc2n1 [compound 62, -((3-methyl-5-(2-methylquinolin-4-yl)-4,5,6,7-tetrahydro-1H-pyrazolo[4,3-c]pyridin-1-yl)methyl)bicyclo[2.2.2]octan-1-amine] | 699
Cc1nn(CC23CCC(N)(CC2)CC3)c2c1CN(c1ccnc(-c3ccccn3)c1)CC2 [compound 94, 4-((5-([2,2'-bipyridin]-4-yl)-3-methyl-4,5,6,7-tetrahydro-1H-pyrazolo[4,3-c]pyridin-1-yl)methyl)bicyclo[2.2.2]octan-1-amine] | 1110
CCn1ncc2c(N3CCc4c(c(C)nn4CC45CCC(N)(CC4)CC5)C3)cc(C)nc21 [compound 150, 4-((5-(1-ethyl-6-methyl-1H-pyrazolo[3,4-b]pyridin-4-yl)-3-methyl-4,5,6,7-tetrahydro-1H-pyrazolo[4,3-c]pyridin-1-yl)methyl)bicyclo[2.2.2]octan-1-amine] | 4200
Cc1cc(N2CCc3c(c(C)nn3CC34CCC(N(C)C(C)C)(CC3)CC4)C2)c2cnn(C)c2n1 [compound 78, 4-((5-(1,6-dimethyl-1H-pyrazolo[3,4-b]pyridin-4-yl)-3-methyl-4,5,6,7-tetrahydro-1H-pyrazolo[4,3-c]pyridin-1-yl)methyl)-N-isopropyl-N-methylbicyclo[2.2.2]octan-1-amine] | 474
COCC(C)NC12CCC(Cn3nc(C)c4c3CCN(c3cc(C)nc5c3cnn5C)C4)(CC1)CC2 (stereo not shown) [compound 96, 4-((5-(1,6-dimethyl-1H-pyrazolo[3,4-b]pyridin-4-yl)-3-methyl-4,5,6,7-tetrahydro-1H-pyrazolo[4,3-c]pyridin-1-yl)methyl)-N-(1-methoxypropan-2-yl)bicyclo[2.2.2]octan-1-amine] | 775
Cc1cc(N2CCc3c(c(C)nn3CC34CCC(N)(CC3)CC4)C2)cc(-c2ccccc2)n1 [compound 93, 4-((3-methyl-5-(2-methyl-6-phenylpyridin-4-yl)-4,5,6,7-tetrahydro-1H-pyrazolo[4,3-c]pyridin-1-yl)methyl)bicyclo[2.2.2]octan-1-amine] | 983

Source: patent US20240376099A1, “COMPOUNDS AND COMPOSITIONS AS INHIBITORS OF ENDOSOMAL TOLL-LIKE RECEPTORS” (Novartis AG, priority 2016, published 2024)
